Drawing on ChEMBL document CHEMBL2146395, “[¹⁸F]FE@SNAP-A new PET tracer for the melanin concentrating hormone receptor 1 (MCHR1): microfluidic and vessel-based approaches” (Bioorg Med Chem, 2012), this text covers metabolised, Activity and Kd for 3 compounds.

Activity calls are given as the source filed them. The calls are words filed in the database; no cut-off is given here.

The nature of data set [1]: Drug degradation in human plasma up to 120 mins. Conditions: read-out: Drug degradation. The data set is classed as ADME, cell-free.
A further data set relates to carboxyl esterase. The data set is described as follows: Drug degradation after 6 hrs in presence of carboxyl esterase. The data set is classed as physicochemical. Conditions: read-out: Drug degradation.
Data set [2] concerns the target T1, Melanin-concentrating hormone receptor 1 (Homo sapiens, UniProt Q99705). The data set is described as follows: Binding affinity to human MCHR1 expressed in CHO cell membranes. Conditions: tested as the 18F-labelled form.
Data set [3] deals with T1, Melanin-concentrating hormone receptor 1. The data set is described as follows: Binding affinity to human MCHR1 expressed in COS7 cells. The data set is classed as cell-based, COS-7.

T1 sequence (Q99705 whole entry): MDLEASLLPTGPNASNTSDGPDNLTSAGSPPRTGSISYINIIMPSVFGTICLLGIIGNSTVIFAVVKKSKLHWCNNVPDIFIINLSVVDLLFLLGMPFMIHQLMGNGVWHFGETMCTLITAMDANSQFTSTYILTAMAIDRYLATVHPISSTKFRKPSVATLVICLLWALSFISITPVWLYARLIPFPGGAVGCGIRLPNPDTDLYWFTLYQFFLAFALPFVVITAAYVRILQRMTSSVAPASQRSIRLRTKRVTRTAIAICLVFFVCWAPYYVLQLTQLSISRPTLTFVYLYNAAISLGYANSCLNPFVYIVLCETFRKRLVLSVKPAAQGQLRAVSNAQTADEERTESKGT

`COCC1=C(C(=O)OCC[18F])C(c2ccc(F)c(F)c2)N(C(=O)NCCCN2CCC(c3cccc(NC(C)=O)c3)CC2)C(=O)N1` (centres undefined): the metabolised at 2 h in data set [1] is under 5%. Further, the metabolised at 6 h with carboxyl esterase was 20%.
Regarding `COCC1=C(C(=O)OCCF)C(c2ccc(F)c(F)c2)N(C(=O)NCCCN2CCC(c3cccc(NC(C)=O)c3)CC2)C(=O)N1` (centres undefined), in data set [2], the result was Active.
As to `COCC1=C(C(=O)OC)[C@H](c2ccc(F)c(F)c2)N(C(=O)NCCCN2CCC(c3cccc(NC(C)=O)c3)CC2)C(=O)N1`, in data set [3], the dissociation constant Kd amounted to 0.18 nM.

What is called Kd is the free concentration of one partner at which half of the binding sites on the other are occupied at equilibrium, for simple one-to-one binding. Low values mean higher affinity, high ones lower affinity.
